# Laboratory results: patent publication US20230212210A1 (priority 2020, published 2023)
# How the values were obtained:
# [1] = target: T1, DC-SIGN (Homo sapiens, UniProt Q9NNX6); test: Binding of DC-SIGN to an HMO chip; conditions: Cy3-labelled DC-SIGN
# T1 sequence (Q9NNX6 1-404): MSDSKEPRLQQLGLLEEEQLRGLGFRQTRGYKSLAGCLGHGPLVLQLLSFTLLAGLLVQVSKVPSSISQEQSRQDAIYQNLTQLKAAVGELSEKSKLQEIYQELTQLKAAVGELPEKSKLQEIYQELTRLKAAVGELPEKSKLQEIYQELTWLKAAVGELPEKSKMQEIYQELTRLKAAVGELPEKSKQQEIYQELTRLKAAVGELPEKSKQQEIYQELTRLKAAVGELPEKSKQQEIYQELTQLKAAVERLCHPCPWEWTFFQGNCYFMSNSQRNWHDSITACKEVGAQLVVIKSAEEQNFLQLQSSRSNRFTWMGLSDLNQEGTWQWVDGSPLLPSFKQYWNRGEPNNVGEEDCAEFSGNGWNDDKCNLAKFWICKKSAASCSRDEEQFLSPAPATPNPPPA
# [2] = target: S1 subunit of SARS-CoV-2 (Severe acute respiratory syndrome coronavirus 2, UniProt P0DTC2)
# [3] = tested on: SARS-CoV-2 pseudovirus in Vero-E6 cells; assay type: cell-based
# [4] = target: S1 subunit (the S1 protein) of SARS-CoV-2 binding to African green monkey kidney cells (Vero-E6 cells) (Severe acute respiratory syndrome coronavirus 2, UniProt P0DTC2); assay type: cell-based; conditions: fixed cells pre-incubated with sugar chain 1 h, S1 subunit 1 μM
# [5] = target: S1 subunit (the S1 protein) of SARS-CoV-2 binding to lung epithelial cells (BEAS-2B cells) (Severe acute respiratory syndrome coronavirus 2, UniProt P0DTC2); assay type: cell-based; conditions: fixed cells pre-incubated with sugar chain 1 h, S1 subunit 1 μM
# [6] = target: S1 subunit (the S1 protein) of SARS-CoV-2 binding to 16HBE cells (bronchial epithelial cells) (Severe acute respiratory syndrome coronavirus 2, UniProt P0DTC2); assay type: cell-based; conditions: 40 μM chondroitin sulfate, 20 μM fucoidan, 1 h pre-incubation; confocal microscopy
compound,measurement,setting,value
"CC(=O)N[C@H]1[C@H](O[C@H]2[C@@H](O)[C@@H](CO)O[C@@H](O[C@H]3[C@H](O)[C@@H](O)C(O)O[C@@H]3CO)[C@@H]2O)O[C@H](CO)[C@@H](O[C@@H]2O[C@@H](C)[C@@H](O)[C@@H](O)[C@@H]2O)[C@@H]1O[C@@H]1O[C@H](CO)[C@H](O)[C@H](O)[C@H]1O (stereo partly drawn) [HMO13, Galβ1-3(Fucα1-4)GlcNAcβ1-3Galβ1-4Glc]","Binding of DC-SIGN to an HMO chip, RFU",[1],1896.5 RFU
"CC(=O)N[C@H]1[C@H](O[C@H]2[C@@H](O)[C@@H](CO)O[C@@H](O[C@H]3[C@H](O)[C@@H](O)C(O)O[C@@H]3CO)[C@@H]2O)O[C@H](CO)[C@@H](O[C@@H]2O[C@H](CO)[C@H](O)[C@H](O)[C@H]2O)[C@@H]1O[C@@H]1O[C@@H](C)[C@@H](O)[C@@H](O)[C@@H]1O (stereo partly drawn) [HMO14, Galβ1-4(Fucα1-3)GlcNAcβ1-3Galβ1-4Glc]","Binding of DC-SIGN to an HMO chip, RFU",[1],2125.34 RFU
"CC(=O)N[C@@H]1[C@@H](O[C@@H]2O[C@H](CO)[C@H](O)[C@H](O)[C@H]2O)[C@@H](O)[C@@H](CO[C@@H]2O[C@H](CO)[C@@H](O)[C@H](O)[C@H]2NC(C)=O)O[C@@H]1O [O23, GlcNAcβ1-6(Galβ1-3)GalNAcα]","Binding of the S1 subunit of a virus to an O-sugar chain chip, RFU",[2],69.84 RFU
"CC(=O)N[C@@H]1[C@@H](O[C@@H]2O[C@H](CO)[C@@H](O[C@@H]3O[C@H](CO)[C@H](O)[C@H](O)[C@H]3O[C@@H]3O[C@@H](C)[C@@H](O)[C@@H](O)[C@@H]3O)[C@H](O[C@@H]3O[C@@H](C)[C@@H](O)[C@@H](O)[C@@H]3O)[C@H]2NC(C)=O)[C@@H](O)[C@@H](CO)O[C@@H]1O [O33, Fucα1-2Galβ1-4(Fucα1-3)GlcNAcβ1-3GalNAcα]","Binding of the S1 subunit of a virus to an O-sugar chain chip, RFU",[2],6320.17 RFU
"CC(=O)N[C@@H]1[C@@H](O[C@@H]2O[C@H](CO)[C@@H](O)[C@H](O)[C@H]2NC(C)=O)[C@@H](O)[C@@H](CO[C@@H]2O[C@H](CO)[C@@H](O)[C@H](O)[C@H]2NC(C)=O)O[C@@H]1O [O39, GlcNAcβ1-6(GlcNAcβ1-3)GalNAcα]","Binding of the S1 subunit of a virus to an O-sugar chain chip, RFU",[2],136.5 RFU
Fucα1-2Gal 1-4GlcNAcβ1-3Galβ1-4Glc [HMO15],"Binding of DC-SIGN to an HMO chip, RFU",[1],1683.84 RFU
Fucα1-2Galβ1-4(Fucα1-3)GlcNAcβ1-3Gal 1-4Glc [HMO16],"Binding of DC-SIGN to an HMO chip, RFU",[1],2537.92 RFU
Fucα1-2Galβ1-4(Fucα1-3)GlcNAcβ1-3Galβ1-3GalNAcα [O20],"Binding of the S1 subunit of a virus to an O-sugar chain chip, RFU",[2],304.5 RFU
Fucα1-2Galβ1-4(Fucα1-3)GlcNAcβ1-6(Fucα1-2Galβ1-4(Fucα1-3)GlcNAcβ1-3)Galβ1-4Glc [HMO46],"Binding of DC-SIGN to an HMO chip, RFU",[1],2425.92 RFU
Fucα1-2Galβ1-4Glc [HMO3],"Binding of DC-SIGN to an HMO chip, RFU",[1],2930.75 RFU
Fucα1-2Galβ1-4GlcNAcβ1-6(Fucα1-2Galβ1-4GlcNAcβ1-3)Galβ1-4Glc [HMO45],"Binding of DC-SIGN to an HMO chip, RFU",[1],838.42 RFU
Galα1-3(Fucα1-2)Galβ1-4GlcNAcβ1-3NAcα [O36],"Binding of the S1 subunit of a virus to an O-sugar chain chip, RFU",[2],320.5 RFU
Galβ1-4(Fucα1-3)Glc [HMO2],"Binding of DC-SIGN to an HMO chip, RFU",[1],2329.09 RFU
Galβ1-4(Fucα1-3)GlcNAcβ1-6(Galβ1-4GlcNAcβ1-3)Gal 1-4Glc [HMO43],"Binding of DC-SIGN to an HMO chip, RFU",[1],1196.59 RFU
Galβ1-4(Fucα1-3)GlcNAcβ1-6(GlcNAcβ1-3)Gal 1-4Glc [HMO36],"Binding of DC-SIGN to an HMO chip, RFU",[1],1707.42 RFU
Galβ1-4GlcNAcβ1-6(Fucα1-2Gal 1-4GlcNAcβ1-3)Gal 1-4Glc [HMO40],"Binding of DC-SIGN to an HMO chip, RFU",[1],801.5 RFU
GlcNAcβ1-6[Fucα1-2Galβ1-4(Fucα1-3)GlcNAcβ1-3]Galβ1-4Glc [HMO33],"Binding of DC-SIGN to an HMO chip, RFU",[1],1913.59 RFU
GlcNAcβ1-6[Galβ1-4(Fucα1-3)GlcNAcβ1-3]Galβ1-4Glc [HMO31],"Binding of DC-SIGN to an HMO chip, RFU",[1],2175.59 RFU
Neu5Acα2-3Galβ1-4GlcNAcβ1-3GalNAcα [O29],"Binding of the S1 subunit of a virus to an O-sugar chain chip, RFU",[2],2866.34 RFU
Neu5Acα2-6Galβ1-4GlcNAcβ1-3(Neu5Acα2-6Galβ1-3GlcNAcβ1-6)GalNAcα [O83],"Binding of the S1 subunit of a virus to an O-sugar chain chip, RFU",[2],6012.67 RFU
fucoidan,inhibition activity to pseudovirus invasion and infection of the cells,[3],exhibit an inhibition activity
same,blocking of the binding of the S1 subunit to Vero-E6 cells,[4],can block
same,blocking of the binding of the S1 subunit to BEAS-2B cells,[5],can block
same,blocking of the binding of the S1 protein to bronchial epithelial cells (16HBE),[6],successfully block
nadroparin calcium,inhibition activity to pseudovirus invasion and infection of the cells,[3],exhibit an inhibition activity
same,blocking of the binding of the S1 subunit to Vero-E6 cells,[4],can block
same,blocking of the binding of the S1 subunit to BEAS-2B cells,[5],can block
sodium chondroitin sulfate,blocking of the binding of the S1 protein to bronchial epithelial cells (16HBE),[6],successfully block
sodium heparin sulfate,blocking of the binding of the S1 subunit to Vero-E6 cells,[4],can block
same,blocking of the binding of the S1 subunit to BEAS-2B cells,[5],can block
